Legend:
[1] = Acute lethal toxicity in mice; details: mouse, in vivo; oral, mortality observed for two weeks
Procedure: Test 3 Acute lethal toxicity in mice
Test compounds were suspended in a 0.5% aqueous tragacanth solution. LD50 values were calculated according to the method of Litchfield and Wilcoxon [cf. J. Pharmacol. Exp. Ther., 96, 99 (1949)].

[2] = tested on: contact hypersensitivity to oxazolone; test: Inhibitory effect on contact hypersensitivity to oxazolone in mice; type: in vivo, mouse (male ICR); details: topical, 24 hours after challenge
Procedure: (3) Inhibitory effect on contact hypersensitivity to oxazolone in mice:
This test was carried out by the method of Evans et al. [cf. Brit.
Male ICR mice (18-20 g) were used. The abdominal region of the mice was carefully clipped with an electric clipper, and 0.1 ml of a 0.5 w/v % oxazolone solution in absolute ethanol was gently rubbed into the clipped area. Five days after the sensitization 20 μl of a 0.5 w/v % oxazolone solution in acetone or chloroform, or the solution containing test compound was applied to both sides of the right ear. The left ear was not treated. Twenty-four hours after the challenge, the animals were sacrificed with diethyl ether. The circular parts (5.5 mm in diameter) of both ears were removed by punching and then weighed. The inhibitory rate was determined by comparing the ear swelling of the mice treated with oxazolone containing test compound with that of the mice treated with oxazolone. Each group of 8 mice was used for each dose of the test compound.

5-lipoxygenase = biological target: T1, 5-lipoxygenase (Cavia porcellus, UniProt A0A286X958); test: Inhibitory effect on 5-lipoxygenase activity in guinea pig leukocytes; type: biochemical, guinea pig (male Hartley); details: read-out: 5-Lipoxygenase inhibit. activity, Inhibition
T1 construct: The cytosol fraction of peritoneal exudate cells from male Hartley guinea pigs (400-700 g) was used as 5-lipoxygenase; from tissue; host or cells: cytosol fraction of peritoneal exudate cells (leukocytes) of male Hartley guinea pigs
T1 sequence (A0A286X958 1-674): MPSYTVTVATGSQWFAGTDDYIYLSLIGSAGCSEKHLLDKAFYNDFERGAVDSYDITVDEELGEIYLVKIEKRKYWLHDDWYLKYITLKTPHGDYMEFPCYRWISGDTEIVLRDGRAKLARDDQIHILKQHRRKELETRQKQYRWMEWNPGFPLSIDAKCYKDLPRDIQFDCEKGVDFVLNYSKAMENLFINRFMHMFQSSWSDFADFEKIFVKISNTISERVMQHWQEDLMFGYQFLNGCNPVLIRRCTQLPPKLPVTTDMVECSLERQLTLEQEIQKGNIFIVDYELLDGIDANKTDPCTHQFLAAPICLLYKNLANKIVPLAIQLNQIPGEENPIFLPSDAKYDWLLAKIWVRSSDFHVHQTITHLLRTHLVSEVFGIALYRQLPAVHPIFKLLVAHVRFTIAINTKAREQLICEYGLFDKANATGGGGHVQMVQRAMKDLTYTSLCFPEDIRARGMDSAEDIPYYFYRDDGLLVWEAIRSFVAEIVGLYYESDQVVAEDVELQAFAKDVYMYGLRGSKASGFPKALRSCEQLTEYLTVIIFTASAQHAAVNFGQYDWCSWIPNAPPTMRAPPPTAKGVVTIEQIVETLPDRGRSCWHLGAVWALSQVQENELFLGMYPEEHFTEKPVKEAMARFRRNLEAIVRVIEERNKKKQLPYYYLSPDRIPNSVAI
Procedure: (1) Inhibitory effect on 5-lipoxygenase activity in guinea pig leukocytes:
This test was carried out by the method of Miyamoto and Obata (cf. "Perspectives in Prostaglandin Research," ed. by Y. Shiokawa et al., Excepta Medica, Amsterdam-Oxford-Princeton, 1983, p78) with minor modifications.
The cytosol fraction of peritoneal exudate cells from male Hartley guinea pigs (400-700 g) was used as 5-lipoxygenase. The standard reaction mixture contained 50 mM potassium phosphate buffer, 1 mM CaCl2, 1 mM glutathione, 1 mM adenosine triphosphoric acid, 10 μM indomethacin and the enzyme. The mixture was incubated for 5 minutes at 30° C. after addition of [1-^14 C]arachidonic acid (0.02 μCi). The reaction was terminated by addition of 0.6 ml of the cold organic solvents (diethyl ether/methanol/0.2M citric acid=30/4/1). The organic layer (300 μl) was applied onto a precoated silica gel 60F254 glass plate (E. Merck, West Germany). Radioactivity on the plate was monitored by a radiochromatogram scanner (Packard, U.S.A.). 5-Lipoxygenase activity was calculated according to the following equation. [formula]
The effects of the test compounds were expressed in terms of percent inhibition.

Cc1ccc(C=CC(=O)NCCCCN2CCN(C(c3ccccc3)c3ccccc3)CC2)cn1 [Example 2, N-[3-(6-methyl-3-pyridyl)acryloyl]-4-(4-diphenylmethyl-1-piperazinyl)butylamine]
LD50 at 336 h [1]: 601 mg/kg
% Inhibition of ear swelling ([2]; 0.3 mg/ear): 40.8%
% Inhibition of ear swelling ([2]; 1.0 mg/ear): 90.0%
inhibition at 30 µM (5-lipoxygenase; 3 × 10^-5 M): 87.2%
inhibition at 10 µM (5-lipoxygenase; 10^-5 M): 45.7%

Reference: patent US4778796A, “ω-(3-pyridyl)alkenamide derivatives and anti-allergenic pharmaceutical compositions containing same” (Dainippon Pharmaceutical Co., Ltd., priority 1985, dated 1988)
